Assay results from patent US11987588B2, “Modulators of the beta-3 adrenergic receptor useful for the treatment or prevention of heart failure and disorders related thereto” (Arena Pharmaceuticals, Inc., priority 2017, dated 2024).

Each compound was assayed against Beta-3 Adrenergic Receptor (Homo sapiens (Human), UniProt P13945) (assay: Homogeneous Time-Resolved Fluorescence (HTRF) cAMP antagonist assay, IC50 determination). Settings: CHO-K1 cells stably expressing recombinant receptor, isoproterenol at EC90.
Assay type: cell-based
Procedure: HTRF cAMP assays were performed according to manufacturer's instructions (Cisbio, cAMP Dynamic 2 Assay Kit; #62AM4PEJ). CHO-K1 cells stably expressing recombinant receptor were harvested and suspended in warm PBS to make a 300,000 cells/mL stock. This cell suspension was dispensed into 384 well assay plates (PerkinElmer ProxiPlate #6008280) at 5 μL per well (1500 cells/well) along with a cAMP standard curve.
Compounds were dissolved and serially diluted (5-fold) in DMSO to generate a 10-point dose response stock. The stock was then diluted 100-fold in assay buffer (PBS containing 1 mM IBMX) before a volume of 2.5 μL was added to the cells (the final, top concentration of compound in the dose-response is typically 10 or 100 μM). After a brief incubation, 2.5 μL of isoproterenol stock, prepared at a concentration 4 times its EC90 at the receptor of interest, was added to the wells. The EC90 for isoproterenol, a beta-adrenergic agonist, was determined in separate experiments using standard methods to measure agonist potencies.
Following a 1-hour incubation at room temperature, 5 μL of cAMP-D2 Reagent diluted in Lysis Buffer was added to each well followed by 5 μL of Cryptate Reagent. Plates were further incubated at room temperature for 1 hour prior to reading. Time resolved fluorescence measurements were collected on a suitable, HTRF-capable plate reader.
Counts from the plate reader were fit to the cAMP standard curve on the assay plate in order to determine cAMP concentrations in each well, and these values were used to construct dose-response curves to obtain IC50 values.

Beta-3 Adrenergic Receptor, sequence (P13945 whole entry, species assumed): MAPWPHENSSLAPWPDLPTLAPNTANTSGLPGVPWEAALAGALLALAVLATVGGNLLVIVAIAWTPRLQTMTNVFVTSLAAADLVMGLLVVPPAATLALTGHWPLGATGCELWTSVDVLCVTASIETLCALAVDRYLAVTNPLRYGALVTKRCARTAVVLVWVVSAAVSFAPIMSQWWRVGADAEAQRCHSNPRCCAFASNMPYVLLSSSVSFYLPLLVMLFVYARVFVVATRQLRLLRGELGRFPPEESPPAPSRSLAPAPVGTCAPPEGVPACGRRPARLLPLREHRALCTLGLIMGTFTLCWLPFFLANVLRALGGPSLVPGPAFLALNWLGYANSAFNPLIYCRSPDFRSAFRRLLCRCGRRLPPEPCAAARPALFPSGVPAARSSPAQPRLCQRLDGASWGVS

SMILES | IC50
CNS(=O)(=O)c1cccc(OC[C@@H](O)CNC2COC3(CCN(S(=O)(=O)c4ccc(C(=O)O)cc4)CC3)C2)c1 (stereo partly drawn) [Compound 40, 4-(3-((S)-2-hydroxy-3-(3-(N-methylsulfamoyl)phenoxy)propylamino)-1-oxa-8-azaspiro[4.5]decan-8-ylsulfonyl)benzoic acid] | 577 nM
CNC(=O)[C@@H](NS(=O)(=O)c1cccc(OC[C@@H](O)CNC2COC3(CCN(S(=O)(=O)c4ccc5ccccc5c4)CC3)C2)c1)[C@@H](C)O (stereo partly drawn) [Compound 92, (2S,3R)-3-hydroxy-2-(3-((2S)-2-hydroxy-3-(8-(naphthalen-2-ylsulfonyl)-1-oxa-8-azaspiro[4.5]decan-3-ylamino)propoxy)phenylsulfonamido)-N-methylbutanamide] | 1990 nM
CNS(=O)(=O)c1cccc(OC[C@@H](O)CN[C@H]2COC3(CCN(S(=O)(=O)c4cnc5c(c4)CCCO5)CC3)C2)c1 [Compound 483, 3-((S)-3-((R)-8-(3,4-dihydro-2H-pyrano[2,3-b]pyridin-6-ylsulfonyl)-1-oxa-8-azaspiro[4.5]decan-3-ylamino)-2-hydroxypropoxy)-N-methylbenzenesulfonamide] | 41.8 nM
C[C@@H](O)CNS(=O)(=O)c1cccc(OC[C@@H](O)CN[C@H]2COC3(CCN(S(=O)(=O)c4cnc5c(c4)N(C)CCO5)CC3)C2)c1 [Compound 436, 3-((S)-2-hydroxy-3-((R)-8-(1-methyl-2,3-dihydro-1H-pyrido[2,3-b][1,4]oxazin-7-ylsulfonyl)-1-oxa-8-azaspiro[4.5]decan-3-ylamino)propoxy)-N—((R)-2-hydroxypropyl)benzenesulfonamide] | 367 nM
CNS(=O)(=O)c1cccc(OC[C@@H](O)CNC2COC3(CCN(S(=O)(=O)c4cccc(-c5ccc(-c6noc(C)n6)cc5)c4)CC3)C2)c1 (stereo partly drawn) [Compound 380, 3-((2S)-2-hydroxy-3-(8-(4′-(5-methyl-1,2,4-oxadiazol-3-yl)biphenyl-3-ylsulfonyl)-1-oxa-8-azaspiro[4.5]decan-3-ylamino)propoxy)-N-methylbenzenesulfonamide] | 102 nM
CNS(=O)(=O)c1cccc(OC[C@@H](O)CNC2COC3(CCN(S(=O)(=O)c4ccc(-c5cc(C(F)(F)F)nn5C)s4)CC3)C2)c1 (stereo partly drawn) [Compound 191, 3-((2S)-2-hydroxy-3-(8-(5-(1-methyl-3-(trifluoromethyl)-1H-pyrazol-5-yl)thiophen-2-ylsulfonyl)-1-oxa-8-azaspiro[4.5]decan-3-ylamino)propoxy)-N-methylbenzenesulfonamide] | 80.9 nM
CNS(=O)(=O)c1cccc(OC[C@@H](O)CN[C@H]2COC3(CCN(S(=O)(=O)c4cnc5c(c4)N(C(C)C)CCO5)CC3)C2)c1 [Compound 469, 3-((S)-2-hydroxy-3-((R)-8-(1-isopropyl-2,3-dihydro-1H-pyrido[2,3-b][1,4]oxazin-7-ylsulfonyl)-1-oxa-8-azaspiro[4.5]decan-3-ylamino)propoxy)-N-methylbenzenesulfonamide] | 31.3 nM
CCn1ncc(S(=O)(=O)N2CCC3(CC2)CC(NC[C@H](O)COc2cccc(S(=O)(=O)NC)c2)CO3)c1C (stereo partly drawn) [Compound 329, 3-((2S)-3-(8-(1-ethyl-5-methyl-1H-pyrazol-4-ylsulfonyl)-1-oxa-8-azaspiro[4.5]decan-3-ylamino)-2-hydroxypropoxy)-N-methylbenzenesulfonamide] | 156 nM
CNS(=O)(=O)c1cccc(OC[C@@H](O)CNC2COC3(CCN(S(=O)(=O)c4c(C)nn(C)c4Cl)CC3)C2)c1 (stereo partly drawn) [Compound 163, 3-((2S)-3-(8-(5-chloro-1,3-dimethyl-1H-pyrazol-4-ylsulfonyl)-1-oxa-8-azaspiro[4.5]decan-3-ylamino)-2-hydroxypropoxy)-N-methylbenzenesulfonamide] | 64.1 nM
CNS(=O)(=O)c1cccc(OC[C@@H](O)CNC2COC3(CCN(S(=O)(=O)c4ccc(C)cc4OC)CC3)C2)c1 (stereo partly drawn) [Compound 135, 3-((2S)-2-hydroxy-3-(8-(2-methoxy-4-methylphenylsulfonyl)-1-oxa-8-azaspiro[4.5]decan-3-ylamino)propoxy)-N-methylbenzenesulfonamide] | 33.3 nM
CNS(=O)(=O)c1cccc(OC[C@@H](O)CNC2COC3(CCN(S(=O)(=O)c4cccc(-c5nn[nH]n5)c4)CC3)C2)c1 (stereo partly drawn) [Compound 409, 3-((2S)-3-(8-(3-(2H-tetrazol-5-yl)phenylsulfonyl)-1-oxa-8-azaspiro[4.5]decan-3-ylamino)-2-hydroxypropoxy)-N-methylbenzenesulfonamide] | 180 nM
C[C@@H](CO)NS(=O)(=O)c1cccc(OC[C@@H](O)CNC2COC3(CCN(S(=O)(=O)c4ccc5ccccc5c4)CC3)C2)c1 (stereo partly drawn) [Compound 48, 3-((2S)-2-hydroxy-3-(8-(naphthalen-2-ylsulfonyl)-1-oxa-8-azaspiro[4.5]decan-3-ylamino)propoxy)-N—((S)-1-hydroxypropan-2-yl)benzenesulfonamide] | 133 nM

The next compounds have a lower IC50 than those just listed; values first:

IC50 | SMILES
30.1 nM | CNS(=O)(=O)c1cccc(OC[C@@H](O)CNC2COC3(CCN(S(=O)(=O)c4ccccc4)CC3)C2)c1 (stereo partly drawn) [Compound 14, 3-((2S)-2-hydroxy-3-(8-(phenylsulfonyl)-1-oxa-8-azaspiro[4.5]decan-3-ylamino)propoxy)-N-methylbenzenesulfonamide]
24.3 nM | CC(C)NS(=O)(=O)c1cccc(OC[C@@H](O)CNC2COC3(CCN(S(=O)(=O)c4ccc5ccccc5c4)CC3)C2)c1 (stereo partly drawn) [Compound 6, 3-((2S)-2-hydroxy-3-(8-(naphthalen-2-ylsulfonyl)-1-oxa-8-azaspiro[4.5]decan-3-ylamino)propoxy)-N-isopropylbenzenesulfonamide]
24.3 nM | CNS(=O)(=O)c1cccc(OC[C@@H](O)CN[C@@H]2COC3(CCN(S(=O)(=O)c4ccc(OC)c(-c5ccc(C6(N)CC6)cc5)c4)CC3)C2)c1 [Compound 463, 3-((S)-3-((S)-8-(4′-(1-aminocyclopropyl)-6-methoxybiphenyl-3-ylsulfonyl)-1-oxa-8-azaspiro[4.5]decan-3-ylamino)-2-hydroxypropoxy)-N-methylbenzenesulfonamide]
21.5 nM | CNS(=O)(=O)c1cccc(OC[C@@H](O)CNC2COC3(CCN(S(=O)(=O)c4cc(Cl)ccc4C#N)CC3)C2)c1 (stereo partly drawn) [Compound 145, 3-((2S)-3-(8-(5-chloro-2-cyanophenylsulfonyl)-1-oxa-8-azaspiro[4.5]decan-3-ylamino)-2-hydroxypropoxy)-N-methylbenzenesulfonamide]
21 nM | CNS(=O)(=O)c1cccc(OC[C@@H](O)CN[C@H]2COC3(CCN(S(=O)(=O)c4cccc(Cl)c4)CC3)C2)c1 [Compound 592, 3-((S)-3-((R)-8-(3-chlorophenylsulfonyl)-1-oxa-8-azaspiro[4.5]decan-3-ylamino)-2-hydroxypropoxy)-N-methylbenzenesulfonamide]
18.1 nM | CNS(=O)(=O)c1cccc(OC[C@@H](O)CNC2COC3(CCN(S(=O)(=O)c4c(C)noc4C)CC3)C2)c1 (stereo partly drawn) [Compound 188, 3-((2S)-3-(8-(3,5-dimethylisoxazol-4-ylsulfonyl)-1-oxa-8-azaspiro[4.5]decan-3-ylamino)-2-hydroxypropoxy)-N-methylbenzenesulfonamide]
16.9 nM | CNS(=O)(=O)c1cccc(OC[C@@H](O)CNC2COC3(CCN(S(=O)(=O)c4ccc(N5CCCCC5)nc4)CC3)C2)c1 (stereo partly drawn) [Compound 421, 3-((2S)-2-hydroxy-3-(8-(6-(piperidin-1-yl)pyridin-3-ylsulfonyl)-1-oxa-8-azaspiro[4.5]decan-3-ylamino)propoxy)-N-methylbenzenesulfonamide]
16.2 nM | CNS(=O)(=O)c1cccc(OC[C@@H](O)CNC2COC3(CCN(S(=O)(=O)c4cccc(F)c4)CC3)C2)c1 (stereo partly drawn) [Compound 28, 3-((2S)-3-(8-(3-fluorophenylsulfonyl)-1-oxa-8-azaspiro[4.5]decan-3-ylamino)-2-hydroxypropoxy)-N-methylbenzenesulfonamide]
15.7 nM | CNS(=O)(=O)c1cccc(OC[C@@H](O)CNC2COC3(CCN(S(=O)(=O)c4cc(-c5ccc(CN)cc5)ccc4OC)CC3)C2)c1 (stereo partly drawn) [Compound 357, 3-((2S)-3-(8-(4′-(aminomethyl)-4-methoxybiphenyl-3-ylsulfonyl)-1-oxa-8-azaspiro[4.5]decan-3-ylamino)-2-hydroxypropoxy)-N-methylbenzenesulfonamide]
13.3 nM | CNS(=O)(=O)c1cccc(OC[C@@H](O)CNC2COC3(CCN(S(=O)(=O)c4cccc(-c5ccncc5)c4)CC3)C2)c1 (stereo partly drawn) [Compound 106, 3-((2S)-2-hydroxy-3-(8-(3-(pyridin-4-yl)phenylsulfonyl)-1-oxa-8-azaspiro[4.5]decan-3-ylamino)propoxy)-N-methylbenzenesulfonamide]
10.8 nM | CNS(=O)(=O)c1cccc(OC[C@@H](O)CNC2COC3(CCN(S(=O)(=O)c4cc(F)ccc4Cl)CC3)C2)c1 (stereo partly drawn) [Compound 202, 3-((2S)-3-(8-(2-chloro-5-fluorophenylsulfonyl)-1-oxa-8-azaspiro[4.5]decan-3-ylamino)-2-hydroxypropoxy)-N-methylbenzenesulfonamide]
10.3 nM | CNS(=O)(=O)c1cccc(OC[C@@H](O)CNC2COC3(CCN(S(=O)(=O)c4cccc(-c5ccc(OCC#N)cc5)c4)CC3)C2)c1 (stereo partly drawn) [Compound 114, 3-((2S)-3-(8-(4′-(cyanomethoxy)biphenyl-3-ylsulfonyl)-1-oxa-8-azaspiro[4.5]decan-3-ylamino)-2-hydroxypropoxy)-N-methylbenzenesulfonamide]
